≈ marks a conversion by molar mass, not a printed value. Read-outs that look alike come from different tables or passages of the source.
Experiments:
[1] = system: LeMDR1 overexpressed L. enriettii (LeV160); assay: Leishmania cell viability (MTS) assay; assay type: cell-based, Leishmania enriettii; settings: Leishmania enriettii
From the text: (§1) Cell lines and Cell Culture.

MDA435/LCC6 cells = assay: Cell proliferation (MTS) assay, parental sensitive cells; assay type: cell-based; settings: Homo sapiens, read-out: IC50 (nM) of anticancer drug alone
From the text: (§2) Cell proliferation assay.

P388/ADR cells [2] = assay: cells; settings: P388/ADR; for IC50: Mus musculus; for RF (relative fold): drug alone (reference)
Protocol: (§3) MDA435/LCC6 and P388 (both parent and MDR subtype) were maintained in DMEM and RPMI 1640 culture medium supplemented with 10% FBS, respectively. RPMI 1640 media also contained 100 units/ml penicillin and 100 μg/ml streptomycin. Cells were cultured at 37° C. in a humidified atmosphere with 5% CO2. A solution of 0.05% trypsin-EDTA was used to detach the MDA435/LCC6 (both wild type and MDR subtype) cells.
(§4) Cell proliferation assay. MDA435/LCC6 and P388 (both parent and MDR subtype) cells were seeded at 2000 and 5000 cells per well, respectively, in 96-well plates. Varying concentrations of anticancer drugs (Doxorubicin, Daunorubicin, Vincristine, Vinblastine, taxol, Mitoxantrone) with or without the flavonoid dimers were added in a final volume of 200 μl and cells were grown for 4 and 3 days for MDA435/LCC6 and P388 (both parent and MDR subtype) cells, respectively. For MDA435/LCC6 (both parent and MDR subtype), the corresponding drugs were added after cell attachment (24 hr incubation). To measure cell proliferation, the cell Titer 960 Aqueous Assay (Promega) was used according to the manufacturer's instructions. Briefly, MTS (2 mg/ml) and PMS (0.92 mg/ml) were mixed in a ratio of 20:1. 30 μl MTS/PMS mixture was added into each well and incubated for 2 hours at 37° C. Optical absorbance at 490 nm was then recorded using an ELISA microtiter plate reader (Bio-Rad). Each experiment was done at least in triplicate and repeated twice. Cytotoxicity of the anticancer drugs was expressed as the fraction of the cells survived relative to the untreated DMSO (0.05%) solvent controls.

P388 cells = assay: Cell proliferation (MTS) assay, parental sensitive cells; assay type: cell-based, murine; settings: Mus musculus
From the text: as §2

MDA435/LCC6 MDR cells = assay: cells; settings: for IC50: Homo sapiens; for RF (relative fold): LCC6 MDR, drug alone (reference)
Protocol: as §3, §4
MDA435/LCC6 is an estrogen-independent human breast cancer cell line. Its MDR subtype (MDA435/LCC6 MDR) was generated by transducing a retroviral vector directing the constitutive expression of the human MDR1 cDNA, producing a cell line with a classical MDR1 resistance pattern (MDA435/LCC6 and MDA435/LCC6MDR1: ascites models of human breast cancer. Br J Cancer 1996, 73, 154-161). The ability of the apigenin dimers of this invention to reverse taxol resistance in MDA435/LCC6 MDR cells were tested. […] Apigenin monomers 10a and 10b at 10 μM were used as the negative controls.

[3] = system: pentamidine-resistant L. enriettii LePentR50 promastigotes; assay: microbe, parasite or virus in culture; settings: Leishmania enriettii, 72 h, read-out: IC50(μM) of synthetic flavonoid, LePentR50, cytotoxicity of compound alone; 72 hrs
Protocol: (§5) Cell lines and Cell Culture. Promastigotes of Leishmania enriettii (LePentR50, Le wild type, LeMDR1 −/− and LeMDR1-overexpressed LeV160 mutants) and Leishmania donovani (LdAG83, Ld2001 and Ld39) were employed in this study. The former is a natural infective strain of guinea pig and the latter is a clinical strain, which may cause visceral leishmaniasis in human. Both strains were cultured in Schneider's Drosophila Medium (Invitrogen), pH 6.9 supplemented with 10% (v/v) heat inactivated fetal calf serum (Hyclone) with 4 mM glutamine (Sigma) and 25 μg/mL gentamicin solution (Invitrogen), at 27° C. for 4 days (Cloning and functional analysis of an extrachromosomally amplified multidrug resistance-like gene in Leishmania enriettii. Mol. Biochem. Parasitol 1993, 60, 195-208).
Promastigotes of LeV160 were culture in the presence of 160 μg/mL vinblastine. No pentamidine and vinblastine (Sigma) was added to the Le wild type and LeMDR1 −/− mutant.
(§6) The viability of promastigotes was determined by the Cell Titer 96® Aqueous Assay (Promega) that employs a tetrazolium compound (MTS) and electron coupling reagent, phenazine methosulfate (PMS). Promastigotes were seeded into 96-well flat bottom microtiter plate at 1×10^5 cells per well in a final volume of 100 μL medium. To determine the cytotoxic effects of flavonoid dimers to the parasites, various concentrations of flavonoid dimers were added to the promastigotes. To determine the reversal effects of flavonoid dimers with different spacer lengths, various concentrations of antileishmanial drugs, one of pentamidine or SSG, vinblastine and puromycin was added to the wells with or without flavonoid dimers. The parasites were incubated at 27° C. for 72 hrs. Each concentration of antileishmanials with or without the flavonoid dimers was tested in triplicates in each experiment. A 2 mg/mL MTS and 0.92 mg/mL PMS were mixed at a ratio of 20:1 (MTS: PMS). After 72-hr incubation, 10 μL of MTS:PMS mixture was added into each well of microtiter plate. The plate was then incubated at 27° C. for 4 hrs for color development. After 4 hrs of incubation, the OD values were determined at 490 nm using automatic microtiter plate reader (Bio-Rad).

[4] = system: SSG-resistant L. donovani Ld39 promastigotes; assay: microbe, parasite or virus in culture; assay type: cell-based, Leishmania donovani; settings: for IC50: Leishmania donovani, 72 h, read-out: IC50(μM) of synthetic flavonoid, Ld39
Protocol: as §5, with “195-208). […]” for “195-208).”
as §6

[5] = system: wild type L. donovani LdAG83 promastigotes; assay: Leishmania cell viability (MTS) assay; assay type: cell-based, Leishmania donovani; settings: Leishmania donovani, 72 h, read-out: IC50(μM) of synthetic flavonoid, LdAG83
Protocol: as §5, with “195-208). […]” for “195-208).”
as §6

[6] = system: LeMDR1 knockout (LeMDR1 −/−) L. enriettii; assay: Leishmania cell viability (MTS) assay; assay type: cell-based, Leishmania enriettii; settings: LeMDR1 −/−
From the text: as §1

P388/ADR cells [7] = assay: Doxorubicin accumulation; assay type: cell-based, murine; settings: monomer 10b at double concentration of the dimers, FIG. 11A
Protocol: For P388 (both parent and MDR subtype) cells, 1 ml (10^5 cells) confluent cells were aliquot into Eppendorf tube and pre-incubated with flavone dimers for 30 min at 37° C. Doxorubicin (final concentration of 10 μM) was then added and incubated for 2 h at 37° C. at a final concentration of 10 μM. The cell pellets were washed 3 times with cold PBS by using an Eppendorf micro-centrifuge and lysed with 0.3N HCL in 50% ethanol, and sonicated for 30s. After centrifugation at 10000 rpm/min for 3 min, the supernatant was saved. The fluorescence of doxorubicin was measured using a spectrofluorometer (λexcite=470 nm, λemit=585 nm).

[8] = read-out: IC50 (nM) of anticancer drug alone
[9] = P388, drug alone, read-out: IC50 (nM) of anticancer drug alone
[10] = 96 h, read-out: IC50 (nM) of anticancer drug alone, LCC6 MDR, drug alone, no modulator
[11] = read-out: IC50 of anticancer drug alone
[12] = MDA435/LCC6 MDR, 5 μM dimer, FIG. 5

Row | SMILES | IC50 (MDA435/LCC6 cells; LCC6, drug alone) | IC50 (P388/ADR cells [2]; [8]) | RF (relative fold) (P388/ADR cells [2]) | IC50 (P388 cells; [9]) | IC50 (MDA435/LCC6 MDR cells; [10]) | RF (relative fold) (MDA435/LCC6 MDR cells) | also measured
1 | COc1ccc(C[C@H](N)C(=O)N[C@H]2[C@@H](O)[C@H](n3cnc4c(N(C)C)ncnc43)O[C@@H]2CO)cc1 [puromycin] |  |  |  |  |  |  | IC50 ([1]; read-out: IC50 of puromycin (μg/ml), no modulator): 16 ± 1 µg/mL (≈ 33.9 µM)
2 | CC(=O)O[C@H]1C(=O)[C@@]2(C)[C@H]([C@H](OC(=O)c3ccccc3)[C@]3(O)C[C@H](OC(=O)[C@H](O)[C@@H](NC(=O)c4ccccc4)c4ccccc4)C(C)=C1C3(C)C)[C@]1(OC(C)=O)CO[C@@H]1C[C@@H]2O [Taxol, paclitaxel] | 2.9 nM | 1640 nM | 1 | 22 nM | 115 nM | 1 | IC50 (MDA435/LCC6 MDR cells; read-out: Mean IC50 of taxol (nM), LCC6MDR, no analog added (control)): 128 nM
3 | COc1cccc2c1C(=O)c1c(O)c3c(c(O)c1C2=O)C[C@@](O)(C(C)=O)C[C@@H]3O[C@H]1C[C@H](N)[C@H](O)[C@H](C)O1 [Daunorubicin] |  | 2110 nM | 1 |  | 977 nM | 1 | IC50 (MDA435/LCC6 cells): 79 nM; IC50 (P388/ADR cells [2]; [11]): 2100 nM; IC50 (P388 cells; P388, read-out: IC50 (nM) of anticancer drug alone): 25 nM
4 | CC[C@]1(O)C[C@H]2CN(CCc3c([nH]c4ccccc34)[C@@](C(=O)OC)(c3cc4c(cc3OC)N(C=O)[C@H]3[C@@](O)(C(=O)OC)[C@H](OC(C)=O)[C@]5(CC)C=CCN6CC[C@]43[C@@H]65)C2)C1 [Vincristine] | 0.29 nM | 299 nM | 1 | 2.2 nM | 26 nM | 1 | 
5 | O=c1cc(-c2ccc(OCCOCCOc3ccc(-c4cc(=O)c5c(O)cc(O)cc5o4)cc3)cc2)oc2cc(O)cc(O)c12 [Compound 9b, 1,7-Bis[4′-((5,7-dihydroxy)-4H-chromen-4-on-2-yl)phenyl]-1,4,7-trioxaheptane] |  |  |  |  |  |  | IC50 [3]: > 200 µM; SSG resistance modulating activity ([4]; Ld39, dimers at 6 μM, FIG. 14B): did not show substantial SSG resistance modulating activity; IC50 [4]: > 200 µM; IC50 [5]: > 200 µM; IC60 of doxorubicin with modulator (MDA435/LCC6 MDR cells; [12]): 1300 nM; reduction of IC60 of doxorubicin, RF (MDA435/LCC6 MDR cells; [12]): ~3.1 RF; pentamidine sensitization [6]: 2.0 fold; activity on doxorubicin accumulation (P388/ADR cells [7]): comparable activity to 9d
6 | O=C1c2c(O)ccc(O)c2C(=O)c2c(NCCNCCO)ccc(NCCNCCO)c21 [Mitoxantrone] | 0.35 nM | 395 nM | 1 | 4.3 nM | 1440 nM | 1 | 
7 | COc1cccc2c1C(=O)c1c(O)c3c(c(O)c1C2=O)C[C@@](O)(C(=O)CO)C[C@@H]3O[C@H]1C[C@H](N)[C@H](O)[C@H](C)O1 [Doxorubicin] | 300 nM | 1740 nM | 1 | 22 nM | 4690 nM | 1 | IC50 (P388/ADR cells [2]; [11]): 1500 nM; IC60 of doxorubicin alone (MDA435/LCC6 MDR cells; MDA435/LCC6 MDR, no modulator, FIG. 5): 4700 nM
8 | O=c1cc(-c2ccc(OCCOCCOCCOCCOCCOCCOCCOCCOc3ccc(-c4cc(=O)c5c(O)cc(O)cc5o4)cc3)cc2)oc2cc(O)cc(O)c12 [Compound 9h, 1,25-Bis[4′-((5,7-dihydroxy)-4H-chromen-4-on-2-yl)phenyl]-1,4,7,10,13,16,19,22,25-nonaoxapentacosane] |  |  |  |  |  |  | IC50 [4]: 14 ± 0.1 µM; IC50 [5]: 12 ± 0.2 µM; doxorubicin sensitization (MDA435/LCC6 MDR cells; MDA435/LCC6 MDR, dimers): very little or no doxorubicin sensitization; reversing effect on taxol resistance (MDA435/LCC6 MDR cells; MDA435/LCC6 MDR, dimers at 5 μM): little or no reversing effect; pentamidine sensitization [6]: 2.3 fold
9 | CC[C@]1(O)C[C@@H]2CN(CCc3c([nH]c4ccccc34)[C@@](C(=O)OC)(c3cc4c(cc3OC)N(C)[C@H]3[C@@](O)(C(=O)OC)[C@H](OC(C)=O)[C@]5(CC)C=CCN6CC[C@]43[C@@H]65)C2)C1 [Vinblastine] | 0.34 nM |  | 1 | 4.1 nM | 4.8 nM | 1 | IC50 (P388/ADR cells [2]; 72 h, read-out: IC50 (nM) of anticancer drug alone): 95 nM; IC50 ([1]; read-out: IC50 of vinblastine (μg/ml), no modulator): 167 ± 3.6 µg/mL (≈ 206 µM)

Source: patent US8710097B2, “Flavonoid dimers and methods of making and using such” (The Hong Kong Polytechnic University, priority 2006, dated 2014)
